In patent US5384411A, “Immobilization of PH-sensitive dyes to solid supports” (Hewlett-Packard Company, priority 1991, dated 1995):
One block for each compound: values may come before it.

Key:
Type in all cases: physicochemical
[1] = pKa and color change with pH of carboxy-phenolphthaleins bound to Sepharose 4B; details: dye bound to Sepharose 4B
Method: Place 0.5 g of Sepharose 4B (commercially available from Pharmacia Inc., Piscataway, N.J. as order number 17-0470-01) in 0.5M NaCl for 1 hour and then collect and set aside. Place the appropriate carboxy-phenolphthalein (1.3 mmol) in about 1 ml dimethylformamide and cool to 0° C. in a ice-ethanol bath. […] Leave the reaction at this cold temperature for 15-20 minutes. Then add the Sepharose 4B gel to reaction along with a scoop of benzyltributyl ammonium bromide and 30 ml of borate buffer (pH 9). Place the reaction flask on a shaker overnight at room temperature. Collect the support on a frit and wash with volumes of water, ethanol, acetone and buffered water. Finally, dialyze the support against water for 1-2 days.

[2] = pKa of carboxy-sulfonephthaleins bound to aminoethyl cellulose; details: dye bound to aminoethyl cellulose
Method: The carboxy-sulfonephthaleins of Examples 8A-8C were reacted with a solid support by the following general procedure:
Place 0.5 g aminoethyl cellulose (commercially available from Serva Biochemicals, Westbury, N.Y. 11590 as order no. 45015) in 30 ml of deionized water and set aside. Place 0.2 g of an appropriate dye in 25 ml of pyridine-HCl buffer (pH 5.8). Add the filtered cellulose to this reaction along with 83 mg of N-ethyl-N'-(3-dimethylaminopropyl)carbodimidehydrochloride (EDC). Place the reaction on a shaker overnight at room temperature. Collect the support and wash with large volumes of water, ethanol, acetone, DMF and pH buffers over the course of 2 days. Collect a final colored support. Also, this same procedure was run using aminopropyl silica beads (Serva #43660) in place of cellulose.
The pKa 's of the carboxy-sulfonephenolphthaleins bound to the solid support (aminoethyl cellulose) was determined and are set forth in Table 4 below: […]

[3] = pKa and pH dye properties of amino-phenolphthaleins bound to Sepharose 6B; details: dye bound to Sepharose 6B
Method: The amino-phenolphthaleins of Examples 2A-2E were reacted with a solid support by the following general procedure:
Place 0.5 g of Sepharose 6B (commercially available from Pharmacia Inc., Piscataway, N.J. as order number 17-0480-01) into deionized water for 30-45 min. to swell. Collect the white gel. In reaction beaker, place 0.3-0.5 g of an appropriate amino-phthalein into 3 ml dioxane and 20 ml of carbonate buffer (pH 10.5). Add the gel and let sit at 35° for 20 hrs. Collect the gel on a glass frit and wash with water, ethanol, acetone and high and low pH buffers. Dialyze the gel against deionized water for 2 days.

Compound: O=C(O)c1ccc2c(c1)C(=O)OC2(c1cc([N+](=O)[O-])c(O)cc1[N+](=O)[O-])c1cc([N+](=O)[O-])c(O)cc1[N+](=O)[O-] [Example 4G]
- pKa [1]: ~ 4

Compound: O=C(O)c1ccc2c(c1)C(=O)OC2(c1cc(O)c(O)cc1[N+](=O)[O-])c1cc(O)c(O)cc1[N+](=O)[O-] [Example 4J]
- pKa [1]: ~ 6

- pKa [1]: 10
Compound: O=C(O)c1ccc2c(c1)C(=O)OC2(c1ccc(O)cc1)c1ccc(O)cc1 [Example 4A]

- pKa [1]: ~ 7
Compound: O=C(O)c1ccc2c(c1)C(=O)OC2(c1ccc(O)c(O)c1)c1ccc(O)c(O)c1 [Example 4I]

- pKa [2]: 7.6
Compound: O=C(O)c1ccc2c(c1)S(=O)(=O)OC2(c1ccc(O)cc1)c1ccc(O)cc1 [Example 8A]

- pKa [3]: ~12
Compound: Cc1cc(C2(c3cc(C)c(O)cc3C)OC(=O)c3c(N)cccc32)c(C)cc1O [Example 2B]

- pKa [3]: approximately 10
Compound: Nc1cccc2c1C(=O)OC2(c1ccc(O)cc1)c1ccc(O)cc1 [Example 2A]

Compound: O=C(O)c1ccc2c(c1)C(=O)OC2(c1cc(Cl)c(O)c([N+](=O)[O-])c1)c1cc(Cl)c(O)c([N+](=O)[O-])c1 [Example 4H]
- pKa [1]: ~ 5.5

- pKa [1]: > 10
Compound: O=C(O)c1ccc2c(c1)C(=O)OC2(c1ccc(O)c2ccccc12)c1ccc(O)c2ccccc12 [Example 4E]

- retention of dye properties after coupling [3]: no longer retained their dye properties
Compound: Nc1cccc2c1C(=O)OC2(c1ccc(O)c(Br)c1)c1ccc(O)c(Br)c1 [Example 2C]

- pKa [2]: 9.2
Compound: Cc1cc(O)c(C(C)C)cc1C1(c2cc(C(C)C)c(O)cc2C)OS(=O)(=O)c2cc(C(=O)O)ccc21 [Example 8C]

- pKa [2]: 6.2
Compound: O=C(O)c1ccc2c(c1)S(=O)(=O)OC2(c1ccc(O)c(Cl)c1)c1ccc(O)c(Cl)c1 [Example 8B]

- retention of dye properties after coupling [3]: no longer retained their dye properties
Compound: Nc1cccc2c1C(=O)OC2(c1ccc(O)c(Cl)c1)c1ccc(O)c(Cl)c1 [Example 2D]
